Tests used:
adenosine A2A receptor = adenosine A2A receptor (Homo sapiens (Human), UniProt P29274); test: Adenosine receptor activity assay (Table 1), A2A activity; format: biochemical; conditions: read-out: Ave A2A cAMP IC50
adenosine A2B receptor = adenosine A2B receptor (Homo sapiens (Human), UniProt P29275); test: Adenosine receptor activity assay (Table 1), A2B activity; format: biochemical; conditions: for Ratio: A2A activity to A2B activity (A2A/A2B); for IC50: read-out: Ave A2B cAMP IC50
Sequence of adenosine A2B receptor (P29275 whole entry): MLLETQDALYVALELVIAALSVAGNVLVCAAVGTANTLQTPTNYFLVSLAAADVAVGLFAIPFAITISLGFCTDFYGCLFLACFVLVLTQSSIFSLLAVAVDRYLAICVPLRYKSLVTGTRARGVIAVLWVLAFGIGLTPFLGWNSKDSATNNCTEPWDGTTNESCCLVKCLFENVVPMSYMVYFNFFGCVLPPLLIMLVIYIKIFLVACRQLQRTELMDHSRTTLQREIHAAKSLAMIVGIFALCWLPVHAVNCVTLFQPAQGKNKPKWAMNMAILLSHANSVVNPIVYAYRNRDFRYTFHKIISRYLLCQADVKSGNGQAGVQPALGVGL

Sequence of adenosine A2A receptor (P29274 whole entry): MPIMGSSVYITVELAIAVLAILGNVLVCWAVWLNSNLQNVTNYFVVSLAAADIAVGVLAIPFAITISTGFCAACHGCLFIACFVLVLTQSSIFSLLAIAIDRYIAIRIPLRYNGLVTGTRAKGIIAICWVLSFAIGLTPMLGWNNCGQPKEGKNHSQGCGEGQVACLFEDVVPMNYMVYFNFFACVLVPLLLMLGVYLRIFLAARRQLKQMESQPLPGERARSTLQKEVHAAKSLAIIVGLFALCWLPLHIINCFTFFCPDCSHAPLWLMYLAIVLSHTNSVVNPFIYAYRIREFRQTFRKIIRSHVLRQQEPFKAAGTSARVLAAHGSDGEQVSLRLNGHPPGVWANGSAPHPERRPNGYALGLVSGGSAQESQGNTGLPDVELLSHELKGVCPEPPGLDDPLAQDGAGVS

Row | IC50 (adenosine A2A receptor) | Ratio (adenosine A2B receptor) | IC50 (adenosine A2B receptor) | SMILES
1 | > 0.5 µM | 13.75 | 0.05 to 0.1 µM | O=C(c1nc(NCc2cccc(Cl)c2)nc2ccsc12)N1CC[C@@H](O)C1 [Example Z118, (R)-(2-((3-Chlorobenzyl)amino)thieno[3,2-d]pyrimidin-4-yl)(3-hydroxypyrrolidin-1-yl)methanone]
2 | > 0.5 µM | 2.08 | 0.1 to 0.5 µM | COc1cncc(CNc2nc(C(=O)N3CC(O)C3)c3sccc3n2)c1 [Example Z119, (3-Hydroxyazetidin-1-yl)(2-(((5-methoxypyridin-3-yl)methyl)amino)thieno[3,2-d]pyrimidin-4-yl)methanone]
3 | 0.1 to 0.5 µM | 13.39 | 0.01 to 0.05 µM | O=C(c1nc(NCc2cccc(Cl)c2)nc2ccsc12)N1CCCC1 [Example Z120, (2-((3-Chlorobenzyl)amino)thieno[3,2-d]pyrimidin-4-yl)(pyrrolidin-1-yl)methanone]
4 | > 0.5 µM | 2.13 | 0.1 to 0.5 µM | COCC(Nc1nc(C(=O)N2CC[C@H](O)C2)c2sccc2n1)c1cccnc1 (stereo partly drawn) [Example Z124, ((S)-3-Hydroxypyrrolidin-1-yl)(2-((2-methoxy-1-(pyridin-3-yl)ethyl)amino)thieno[3,2-d]pyrimidin-4-yl)methanone]
5 | 0.1 to 0.5 µM |  | 0.01 to 0.05 µM | COCC(Nc1nc(C(=O)N2CCCC2)c2sccc2n1)c1cccnc1 (stereo not drawn) [Example Z127, (2-((2-Methoxy-1-(pyridin-3-yl)ethyl)amino)thieno[3,2-d]pyrimidin-4-yl)(pyrrolidin-1-yl)methanone]
6 | 0.01 to 0.05 µM | 3.85 | 0.01 to 0.05 µM | CC1CCN1C(=O)c1nc(N[C@@H](C)c2ccccn2)nc2ccsc12 (stereo partly drawn) [Example Z133, (2-Methylazetidin-1-yl)(2-(((S)-1-(pyridin-2-yl)ethyl)amino)thieno[3,2-d]pyrimidin-4-yl)methanone]
7 | > 0.5 µM | 3.11 | 0.1 to 0.5 µM | CC(C)(C)OC(=O)N1CCN(C(=O)c2nc(NCc3cncc(F)c3)nc3ccsc23)C1 [Example Z135, tert-Butyl 3-(2-(((5-fluoropyridin-3-yl)methyl)amino)thieno[3,2-d]pyrimidine-4-carbonyl)imidazolidine-1-carboxylate]
8 | > 0.5 µM | 11.51 | 0.05 to 0.1 µM | COc1cc(F)cc(CNc2nc(C(=O)N3CC(C)(O)C3)c3sccc3n2)c1 [Example Z136, (2-((3-Fluoro-5-methoxybenzyl)amino)thieno[3,2-d]pyrimidin-4-yl)(3-hydroxy-3-methylazetidin-1-yl)methanone]
9 | > 0.5 µM | 1.36 | > 0.5 µM | C[C@H](Nc1nc(C(=O)N2CCN(C(=O)OC(C)(C)C)C2)c2sccc2n1)c1cccnc1 [Example Z140, tert-Butyl (S)-3-(2-((1-(pyridin-3-yl)ethyl)amino)thieno[3,2-d]pyrimidine-4-carbonyl)imidazolidine-1-carboxylate]
10 | > 0.5 µM | 2.76 | > 0.5 µM | NC(=O)c1cncc(CNc2nc(C(=O)N3CCCC3)c3sccc3n2)c1 [Example Z142, 5-(((4-(Pyrrolidine-1-carbonyl)thieno[3,2-d]pyrimidin-2-yl)amino)methyl)nicotinamide]
11 | 0.1 to 0.5 µM |  | 0.01 to 0.05 µM | COCCNC(=O)c1nc(NCc2cncc(F)c2)nc2ccsc12 [Example Z146, 2-(((5-Fluoropyridin-3-yl)methyl)amino)-N-(2-methoxyethyl)thieno[3,2-d]pyrimidine-4-carboxamide]
12 | > 0.5 µM | 4.87 | > 0.5 µM | C[C@H](Nc1nc(C(=O)N2CCNC2)c2sccc2n1)c1cccnc1 [Example Z148, (S)-Imidazolidin-1-yl(2-((1-(pyridin-3-yl)ethyl)amino)thieno[3,2-d]pyrimidin-4-yl)methanone]
13 | > 0.5 µM | 14.43 | > 0.5 µM | O=C(c1nc(NCc2cncc(F)c2)nc2ccsc12)N1CCNC1 [Example Z149, (2-(((5-Fluoropyridin-3-yl)methyl)amino)thieno[3,2-d]pyrimidin-4-yl)(imidazolidin-1-yl)methanone]
14 | > 0.5 µM | 7.05 | > 0.5 µM | C[C@H](Nc1nc(C(=O)N[C@H]2CCNC2)c2sccc2n1)c1ccccn1 [Example Z150, 2-(((S)-1-(pyridin-2-yl)ethyl)amino)-N—((S)-pyrrolidin-3-yl)thieno[3,2-d]pyrimidine-4-carboxamide]
15 | 0.1 to 0.5 µM |  | 0.1 to 0.5 µM | C[C@H](Nc1nc(C(=O)NCC2CCN(Cc3ccccc3)CC2)c2sccc2n1)c1ccccn1 [Example Z151, (S)—N-((1-Benzylpiperidin-4-yl)methyl)-2-((1-(pyridin-2-yl)ethyl)amino)thieno[3,2-d]pyrimidine-4-carboxamide]
16 | 0.1 to 0.5 µM | 4.52 | 0.05 to 0.1 µM | O=C(NC1CCC1)c1nc(NCc2cnccn2)nc2ccsc12 [Example Z154, N-Cyclobutyl-2-((pyrazin-2-ylmethyl)amino)thieno[3,2-d]pyrimidine-4-carboxamide]

Row | IC50 (adenosine A2A receptor) | Ratio (adenosine A2B receptor) | IC50 (adenosine A2B receptor) | SMILES
17 | > 0.5 µM | 18.83 | 0.05 to 0.1 µM | O=C(c1nc(NCc2cnccn2)nc2ccsc12)N1CCC1 [Example Z155, Azetidin-1-yl(2-((pyrazin-2-ylmethyl)amino)thieno[3,2-d]pyrimidin-4-yl)methanone]
18 | > 0.5 µM | 14.60 | > 0.5 µM | O=C(c1nc(NCc2cnccn2)nc2ccsc12)N1CC[C@H](O)C1 [Example Z156, (S)-(3-Hydroxypyrrolidin-1-yl)(2-((pyrazin-2-ylmethyl)amino)thieno[3,2-d]pyrimidin-4-yl)methanone]
19 | > 0.5 µM | 3.17 | > 0.5 µM | COCCNC(=O)c1nc(NCc2cnccn2)nc2ccsc12 [Example Z157, N-(2-Methoxyethyl)-2-((pyrazin-2-ylmethyl)amino)thieno[3,2-d]pyrimidine-4-carboxamide]
20 | 0.1 to 0.5 µM | 36.14 | 0.01 to 0.05 µM | O=C(c1nc(NCc2cc(F)cc(F)c2)nc2ccsc12)N1CCC1 [Example Z168, Azetidin-1-yl(2-((3,5-difluorobenzyl)amino)thieno[3,2-d]pyrimidin-4-yl)methanone]
21 | 0.1 to 0.5 µM | 3.76 | 0.1 to 0.5 µM | CC(C)(C)OC(=O)N1CC(NC(=O)c2nc(NCc3cncc(F)c3)nc3ccsc23)C1 [Example Z178, tert-Butyl 3-(2-(((5-fluoropyridin-3-yl)methyl)amino)thieno[3,2-d]pyrimidine-4-carboxamido)azetidine-1-carboxylate]
22 | 0.05 to 0.1 µM | 1.09 | 0.05 to 0.1 µM | C[C@H](Nc1nc(C(=O)NC2CN(C(=O)OC(C)(C)C)C2)c2sccc2n1)c1ccccn1 [Example Z179, tert-Butyl (S)-3-(2-((1-(pyridin-2-yl)ethyl)amino)thieno[3,2-d]pyrimidine-4-carboxamido)azetidine-1-carboxylate]
23 | 0.1 to 0.5 µM | 5.43 | 0.05 to 0.1 µM | C[C@H](Nc1nc(C(=O)N[C@@H](C)CO)c2sccc2n1)c1ccccn1 [Example Z181, N—((S)-1-Hydroxypropan-2-yl)-2-(((S)-1-(pyridin-2-yl)ethyl)amino)thieno[3,2-d]pyrimidine-4-carboxamide]
24 | 0.1 to 0.5 µM | 5.92 | 0.05 to 0.1 µM | C[C@H](CO)NC(=O)c1nc(N[C@@H](C)c2ccccn2)nc2ccsc12 [Example Z182, N—((R)-1-Hydroxypropan-2-yl)-2-(((S)-1-(pyridin-2-yl)ethyl)amino)thieno[3,2-d]pyrimidine-4-carboxamide]
25 | > 0.5 µM | 29.35 | 0.05 to 0.1 µM | Nc1cc2nc(NCc3cccnc3)nc(C(=O)N3CCCC3)c2s1 [Example Z186, (6-Amino-2-((pyridin-3-ylmethyl)amino)thieno[3,2-d]pyrimidin-4-yl)(pyrrolidin-1-yl)methanone]
26 | 0.05 to 0.1 µM | 4.46 | 0.01 to 0.05 µM | C[C@H](Nc1nc(C(=O)NCC2CCC2)c2sccc2n1)c1ccccn1 [Example Z193, (S)—N-(Cyclobutylmethyl)-2-((1-(pyridin-2-yl)ethyl)amino)thieno[3,2-d]pyrimidine-4-carboxamide]
27 | 0.1 to 0.5 µM | 5.79 | 0.01 to 0.05 µM | C[C@H](Nc1nc(C(=O)NC2COC2)c2sccc2n1)c1ccccn1 [Example Z194, (S)—N-(Oxetan-3-yl)-2-((1-(pyridin-2-yl)ethyl)amino)thieno[3,2-d]pyrimidine-4-carboxamide]
28 | 0.1 to 0.5 µM | 17.59 | 0.01 to 0.05 µM | C[C@H](Nc1nc(C(=O)N2CC[C@@H](F)C2)c2sc(N)cc2n1)c1cccnc1 [Example Z195, (6-Amino-2-(((S)-1-(pyridin-3-yl)ethyl)amino)thieno[3,2-d]pyrimidin-4-yl)((R)-3-fluoropyrrolidin-1-yl)methanone]
29 | > 0.5 µM | 102.27 | 0.01 to 0.05 µM | C[C@H](Nc1nc(C(=O)N2CC[C@H](O)C2)c2sc(N)cc2n1)c1cccnc1 [Example Z196, (6-Amino-2-(((S)-1-(pyridin-3-yl)ethyl)amino)thieno[3,2-d]pyrimidin-4-yl)((S)-3-hydroxypyrrolidin-1-yl)methanone]
30 | 0.1 to 0.5 µM | 1.81 | 0.1 to 0.5 µM | C[C@H](Nc1nc(C(=O)NCc2cncc(C(F)(F)F)c2)c2sccc2n1)c1ccccn1 [Example Z200, (S)-2-((1-(Pyridin-2-yl)ethyl)amino)-N-((5-(trifluoromethyl)pyridin-3-yl)methyl)thieno[3,2-d]pyrimidine-4-carboxamide]
31 | 0.05 to 0.1 µM | 3.91 | 0.01 to 0.05 µM | COCC(Nc1nc(C(=O)NC2CC2)c2sccc2n1)c1cccnc1 (stereo not drawn) [Example Z202, N-Cyclopropyl-2-((2-methoxy-1-(pyridin-3-yl)ethyl)amino)thieno[3,2-d]pyrimidine-4-carboxamide]

Source: patent publication US11254686B1 (Corvus Pharmaceuticals, Inc., priority 2017, dated 2022)
